{"source": "paper PMC8981703", "about": "(BMC Medicine, 2022)", "key": {"[1]": {"test_system": "Chinese patients with RRMM", "experiment": "MARCH: safety (TEAEs, CTCAE version 4.03), exposure, dose modification, disposition", "format": "in vivo", "description": "(§1) Response assessment was performed every 28 days on day 1 of each cycle. Adverse event (AE) was assessed using the NCI Common Terminology Criteria for Adverse Events (CTCAE) version 4.03. […] Plasma concentrations were determined at the following distinct time points: pre-dose, 0.5 h, 1 h, 1.5 h, 2 h, 3 h, 4 h, 5 h, 6 h, 8 h, 10 h, 24 h, and 48 h. Pharmacokinetics ethnicity sensitivity analysis was performed to evaluate the potential impact of ethnic factors on the acceptability and difference in the data of Chinese and western patients.\nPatients who received at least 1 dose of study treatment (modified intent-to-treat [mITT]/safety population) were used for efficacy and safety analysis. Demographics, baseline disease characteristics, and prior anti-MM therapies were summarized for the mITT populations. For the primary analysis of ORR, the primary endpoint, the sample size of 82 patients would provide 80% power to detect a statistical significance with the target ORR of 28% against the threshold ORR (i.e., null hypothesis) of 15% (one-sided α=0.025); statistical significance would be declared if the lower bound of the 95% confidence interval (CI) would be greater than 15%. Time to event endpoints including PFS, OS, and DOR were analyzed using the Kaplan-Meier method."}, "clinical": {"experiment": "clinical", "format": "in vivo, human", "conditions": "plasma", "description": "as §1\nPK parameters were obtained by analyzing adequate plasma drug concentration data and calculated using the NCA model with Phoenix WinNonlin v8.3.1. The descriptive statistics of PK parameters were summarized using SAS 9.4."}}, "data": [{"smiles": "O=C(/C=C\\n1cnc(-c2cc(C(F)(F)F)cc(C(F)(F)F)c2)n1)NNc1cnccn1", "note": "[selinexor, Selinexor]", "values": [{"measurement": "median number of dose reductions", "setting": "[1]; among the patients with dose reductions", "result": 2}, {"measurement": "median time to the first dose reduction", "setting": "[1]; in vivo", "result": 22.0, "unit": "days"}, {"measurement": "patients with a reduction to 80 mg weekly", "setting": "[1]; in vivo", "result": 20.7, "unit": "%"}, {"measurement": "patients with a reduction to 100–120 mg weekly", "setting": "[1]; in vivo", "result": 40.2, "unit": "%"}, {"measurement": "patients with dose interruptions", "setting": "[1]; in vivo", "result": 75.6, "unit": "%"}, {"measurement": "patients with dose reductions", "setting": "[1]; in vivo", "result": 84.1, "unit": "%"}, {"measurement": "Tmax", "setting": "clinical; human, po, 80 mg, single dose selinexor 80 mg oral, C1D1, read-out: median T max", "result": 2.88, "unit": "h"}, {"measurement": "AUC(0-t)", "setting": "clinical; human, po, 80 mg, read-out: mean AUC0–48h", "result": 5800, "unit": "ng·h/mL"}, {"measurement": "Cmax", "setting": "clinical; human, po, 80 mg, read-out: mean C max", "result": 862, "unit": "ng/mL"}, {"measurement": "half-life", "setting": "clinical; human, po, 80 mg, read-out: mean t 1/2 (converted)", "result": 6, "unit": "h"}, {"measurement": "median T max", "setting": "clinical; single dose selinexor 80 mg oral, C1D1", "result": 3, "unit": "h"}]}]}
